Test results reported in patent US6946453B2, “4-dedimethylaminotracycline derivatives” (CollaGenex Pharmaceuticals, Inc., priority 1998, dated 2005).

What follows are compounds tested on BALB/c 3T3 (CCL-163) cells. Details: not given.
Procedure: The assay used to assess phototoxicity is the so-called 3T3 Phototoxicity Assay. The assay compares the cytotoxicity of a series of doses of a test compound in the presence and absence of UVA/visible light.
Briefly, serial dilutions of a test compound are prepared, and are incubated with 3T3 cells in two 96-well plates. Following an initial incubation, the cells in one plate, the test cells receiving both the chemical and light, are exposed to UVA/visible light. In the second plate, the test cells receiving only the test chemical were treated the same way, except they are kept in the dark for the same amount of time.
Twenty-four hours after exposure, the test cells and the control cells are then incubated with neutral red dye. Neutral red dye is used to measure the relative number of living cells in each well. Live cells are stained with the dye while dead cells are not.
Phototoxicity is measured by the relative toxicity between the doses with and without light exposure following published guidelines.
Streptomycin sulfate ([…]) and penicillin (100 IU/ml) were added to the medium after the cells were treated with test article in 96-well plates.
Serial dilutions of the tetracycline derivatives were prepared in DMSO at concentrations 100× to final testing concentration. The COL dilutions in DMSO were then diluted in Hanks' Balanced Salt Solution (HBSS) for application to the cells. The final DMSO concentration was 1% in treated and control cultures. A dose range finding assay is conducted with eight serial dilutions covering a range of 100-0.03 μg/ml in half log steps. Definitive assays are conducted with 6-8 serial dilutions prepared in quarter log steps, centered on the expected 50% toxicity point as determined in the dose range finding assay. One hundred 100 μg/ml was the highest dose recommended to prevent false negative results from UV absorption by the dosing solutions. One dose range finding and at least two definitive trials were performed on each tetracycline derivative and control compound.
Controls: Each assay included both negative (solvent) and positive controls. Twelve wells of negative control cultures were used on each 96-well plate. Chlorpromazine (Sigma Chemicals) was used as the positive control and was prepared and dosed like the test tetracycline derivatives.
Solar Simulator: A Dermalight SOL 3 solar simulator, equipped with a UVA H1 filter (320-400 nm), was adjusted to the appropriate height. Measurement of energy through the lid of a 96-well microtiter plate was carried out using a calibrated UV radiometer UVA sensor. Simulator height was adjusted to deliver 1.7±0.1 mW/cm^2 of UVA energy (resulting dose was 1 J/cm^2 per 10 minutes of exposure).
Phototoxicity Assay: Duplicate plates were prepared for each test material by seeding 10^4 3T3 cells per well in complete medium 24 hours before treatment. Prior to treatment, the medium was removed, and the cells washed once with 125 μl of prewarmed HBSS. Fifty μl of prewarmed HBSS were added to each well. Fifty μl of each test article dilution were added to the appropriate wells and the plates returned to the incubator for approximately one hour. Six wells were treated with each dose of test or control article on each plate. Following the 1 hr incubation, the plates designated for the photo irradiation were exposed (with the lid on) to 1.7±0.1 mW/cm^2 UVA light for 50±2 minutes at room temperature resulting in an irradiation dose of 5 J/cm^2. Duplicate plates, designated for the measurement of cytotoxicity without light, were kept in the dark room temperature for 50±2 minutes. After the 50 minute exposure period (with or without light) the test article dilutions were decanted from the plates and the cells washed once with 125 μl of HBSS. One hundred μl of medium were added to all wells and the cells incubated as above for 24±1 hours.

Row | Compound | PIF 2 (photoirritancy factor, IC50(-UVA)/IC50(+UVA), OECD draft guideline 432) | PIF 1 (photoirritancy factor, IC50(-UVA)/IC50(+UVA), earlier software)
1 | NC(=O)C1=C(O)C[C@@H]2C[C@@H]3Cc4cccc(O)c4C(=O)C3=C(O)[C@]2(O)C1=O [COL 3, 6-demethyl-6-deoxy-4-dedimethylaminotetracycline] | 84.72 | –
2 | CC1c2cccc(O)c2C(=O)C2=C(O)C3(O)C(=O)C(C(N)=O)=C(O)CC3C(O)C21 (stereo not shown) [COL 8, 4-dedimethylaminodoxycycline] | 82.61 | –
3 | CN(C)c1ccc(O)c2c1CC1CC3CC(O)=C(C(N)=O)C(=O)C3(O)C(O)=C1C2=O (stereo not shown) [COL 10, 4-dedimethylaminominocycline] | 2.04 | –
4 | NC(=O)C1=C(O)CC2CC3Cc4c([N+](=O)[O-])ccc(O)c4C(=O)C3=C(O)C2(O)C1=O (stereo not shown) [COL 302, 7-nitro-6-demethyl-6-deoxy-4-dedimethylaminotetracycline] | 23.32 | –
5 | NC(=O)C1=C(O)CC2CC3Cc4ccc([N+](=O)[O-])c(O)c4C(=O)C3=C(O)C2(O)C1=O (stereo not shown) [COL 303, 9-nitro-6-demethyl-6-deoxy-4-dedimethylaminotetracycline] | 13.82 | –
6 | CN(C)c1ccc2c(c1O)C(=O)C1=C(O)C3(O)C(=O)C(C(N)=O)=C(O)CC3CC1C2 (stereo not shown) [COL 306, 9-dimethylamino-6-demethyl-6-deoxy-4-dedimethylaminotetracycline] | 1.56 | –
7 | CN(C)CC(=O)Nc1ccc2c(c1O)C(=O)C1=C(O)C3(O)C(=O)C(C(N)=O)=C(O)CC3CC1C2 (stereo not shown) [COL 309, 9-dimethylaminoacetamido-6-demethyl-6-deoxy-4-dedimethylaminotetracycline] | 12.87 | –
8 | O=C(NCN1CCCC1)C1=C(O)CC2CC3Cc4cccc(O)c4C(=O)C3=C(O)C2(O)C1=O (stereo not shown) [COL 312, 2-CONHCH2-pyrrolidin-1-yl-6-demethyl-6-deoxy-4-dedimethylaminotetracycline] | 75.11 | –
9 | O=C(NCN1CCCCC1)C1=C(O)CC2CC3Cc4cccc(O)c4C(=O)C3=C(O)C2(O)C1=O (stereo not shown) [COL 313, 2-CONHCH2-piperidin-1-yl-6-demethyl-6-deoxy-4-dedimethylaminotetracycline] | 58.22 | –
10 | O=C(NCN1CCOCC1)C1=C(O)CC2CC3Cc4cccc(O)c4C(=O)C3=C(O)C2(O)C1=O (stereo not shown) [COL 314, 2-CONHCH2-morpholin-1-yl-6-demethyl-6-deoxy-4-dedimethylaminotetracycline] | 89.48 | –
11 | O=C(NCN1CCNCC1)C1=C(O)CC2CC3Cc4cccc(O)c4C(=O)C3=C(O)C2(O)C1=O (stereo not shown) [COL 315, 2-CONHCH2-piperazin-1-yl-6-demethyl-6-deoxy-4-dedimethylaminotetracycline] | 35.30 | –
12 | CC1c2cccc(O)c2C(=O)C2=C(O)C3(O)C(=O)C(C(=O)NCN4CCCC4)=C(O)CC3C(O)C21 (stereo not shown) [COL 807, 2-CONHCH2-pyrrolidin-1-yl-4-dedimethylaminodoxycycline] | – | 40.4
13 | CN(C)c1cc([N+](=O)[O-])c(O)c2c1CC1CC3CC(O)=C(C(N)=O)C(=O)C3(O)C(O)=C1C2=O (stereo not shown) [COL 1002, 9-nitro-4-dedimethylaminominocycline] | 1.35 | –

Same assay, conditions: BALB/c 3T3 cells, cytotoxicity with vs without 5 J/cm^2 UVA, neutral red; OECD draft guideline 432 software

Row | Compound | MPE (mean photo effect)
14 | COL 2 | 0.005

Same assay, conditions: mouse, 110 min

Row | Compound | PIF 2 (photoirritancy factor, IC50(-UVA)/IC50(+UVA), OECD draft guideline 432)
15 | CN(C)CCCN1c2ccccc2Sc2ccc(Cl)cc21 [Chlorpromazine, reference compound] | 40.38
16 | C[C@H]1c2cccc(O)c2C(=O)C2=C(O)[C@]3(O)C(=O)C(C(N)=O)=C(O)[C@@H](N(C)C)[C@@H]3[C@@H](O)[C@@H]21 [Doxycycline, doxycycline, reference compound] | 26.71
